Counter-ions that a name gives are not always drawn. Where a SMILES comes first, the peptide text is derived from it. Where no end group is shown, it is not given here. [ ]: non-standard residue; d: D form.
How the values were obtained:
opiate receptor [1] = assay: Opiate receptor affinity by method of Pasternak et al. using tritiated naloxone, absence of sodium ions; type: binding
Protocol: *Method of Pasternak, G. W. et al., Molecular Pharmacology, 11, 340-351
(1975) using tritiated naloxone and in the absence of sodium ions; assays
performed at 4° C. in the presence of bacitracin (50 μg/ml) in
trishydrochloric acid buffer (50 mM, pH 7.4).
(§1) The opiate receptor IC50 (M) was ascertained by the method indicated in Example 1.
as §1

opiate receptor [2] = assay: Specific binding affinity for the opiate receptor of the radio-iodinated peaks; settings: first peak (monoiodinated) compared with second peak (diiodinated)
Protocol: The material comprising this peak was applied to a Sephadex 2-(diethylamino)ethyl ether column and eluted with sodium borate buffer (12.5 mM, pH 9.0, 0.1 N sodium chloride).

[3] = TABLE 2 (Example 3), method indicated in Example 1: tritiated naloxone
[4] = table of Example 1, tritiated naloxone, 4° C., bacitracin 50 μg/ml, pH 7.4
[5] = TABLE 1 (Example 2), method indicated in Example 1: tritiated naloxone

| Compound | IC50 (opiate receptor [1]; [3]) [µM] | other results |
| --- | --- | --- |
| CCNC(=O)[C@@H](CC(C)C)NC(=O)[C@H](Cc1ccc(Cl)cc1)NC(=O)CNC(=O)[C@@H](C)NC(=O)[C@@H](N)Cc1ccc(O)cc1 [(A1), H . Tyr . D-Ala . Gly . Phe(4Cl) . D-Leu . NHEt HCl] | 0.08 | – |
| CSCC[C@H](NC(=O)[C@H](Cc1ccccc1)NC(=O)CNC(=O)[C@@H](C)NC(=O)[C@@H](N)Cc1ccc(O)cc1)C(=O)O [(B), H . Tyr . D-Ala . Gly . Phe . Met . OH HCl] | – | IC50 (opiate receptor [1]; [4]): 0.0038 µM |
| COC(=O)[C@H](CCSC)NC(=O)[C@H](Cc1ccccc1)NC(=O)CNC(=O)[C@@H](C)NC(=O)[C@@H](N)Cc1ccc(O)cc1 [(D), H . Tyr . D-Ala . Gly . Phe . Met . OMe] | – | IC50 (opiate receptor [1]; [5]): 0.005 µM |
| CSCC[C@H](NC(=O)[C@H](Cc1ccccc1)NC(=O)CNC(=O)[C@@H](C)NC(=O)[C@@H](N)Cc1ccc(O)cc1)C(=O)N[C@H](C(=O)O)[C@@H](C)O [(E), H . Tyr . D-Ala . Gly . Phe . Met . Thr . OH HCl] (H-Y[dA]GFMT-OH) | – | IC50 (opiate receptor [1]; [5]): 0.0056 µM |
| CC(C)C[C@H](NC(=O)[C@H](Cc1ccccc1)NC(=O)CNC(=O)[C@@H](C)NC(=O)[C@@H](N)Cc1ccc(O)cc1)C(=O)N[C@H](C(=O)O)[C@@H](C)O [(G), H . Tyr . D-Ala . Gly . Phe . Leu . Thr . OH HCl] (H-Y[dA]GFLT-OH) | – | IC50 (opiate receptor [1]; [5]): 0.008 µM |
| CSCC[C@@H](NC(=O)[C@H](Cc1ccccc1)NC(=O)CNC(=O)[C@@H](C)NC(=O)[C@@H](N)Cc1ccc(O)cc1)C(=O)O [(J), H . Tyr . D-Ala . Gly . Phe . D-Met . OH HCl] | – | IC50 (opiate receptor [1]; [5]): 0.008 µM |
| CC(C)C[C@@H](NC(=O)[C@H](Cc1ccc(Cl)cc1)NC(=O)CNC(=O)[C@@H](C)NC(=O)[C@@H](N)Cc1ccc(O)cc1)C(=O)O [(K), H . Tyr . D-Ala . Gly . Phe (4Cl) . D-Leu . OH HCl] | – | IC50 (opiate receptor [1]; [5]): 0.001 µM |
| COC(=O)[C@@H](CC(C)C)NC(=O)[C@H](Cc1ccc(Cl)cc1)NC(=O)CNC(=O)[C@@H](C)NC(=O)[C@@H](N)Cc1ccc(O)cc1 [(L), H . Tyr . D-Ala . Gly . Phe (4Cl) . D-Leu . OMe HCl] | – | IC50 (opiate receptor [1]; [5]): 0.002 µM |
| CC(C)C[C@H](NC(=O)[C@H](Cc1ccccc1)NC(=O)[C@H](C)NC(=O)[C@@H](C)NC(=O)[C@@H](N)Cc1ccc(O)cc1)C(=O)O [(N), H . Tyr . D-Ala . Ala . Phe . Leu . OH HCl] (H-Y[dA]AFL-OH) | 0.08 | – |
| CCCC[C@H](NC(=O)[C@H](Cc1ccccc1)NC(=O)CNC(=O)CNC(=O)[C@@H](N)Cc1ccc(O)cc1)C(=O)O [(O), H . Tyr . Gly . Gly . Phe . Nle . OH HCl] | 0.08 | – |
| CC(C)C[C@@H](NC(=O)[C@H](Cc1ccccc1)NC(=O)CNC(=O)CNC(=O)[C@@H](N)Cc1ccc(O)cc1)C(=O)O [(P), H . Tyr . Gly . Gly . Phe . D-Leu . OH HCl] | 0.025 | – |
| C[C@@H](NC(=O)[C@@H](N)Cc1ccc(O)cc1)C(=O)NCC(=O)N[C@@H](Cc1ccccc1)C(=O)N[C@H](C(=O)O)[C@@H](C)O [(Q), H . Tyr . D-Ala . Gly . Phe . Thr . OH HCl] (H-Y[dA]GFT-OH) | 0.09 | – |
| CC(C)C[C@@H](NC(=O)[C@H](Cc1ccccc1)NC(=O)CNC(=O)[C@@H](C)NC(=O)[C@@H](N)Cc1ccc(O)cc1)C(=O)N[C@H](C(=O)O)[C@@H](C)O [(R), H . Tyr . D-Ala . Gly . Phe . D-Leu . Thr . OH HCl] (H-Y[dA]GF[dL]T-OH) | 0.03 | – |
| CSCC[C@@H](NC(=O)[C@H](Cc1ccccc1)NC(=O)CNC(=O)[C@@H](C)NC(=O)[C@@H](N)Cc1ccc(O)cc1)C(=O)N[C@H](C(=O)O)[C@@H](C)O [(S), H . Tyr . D-Ala . Gly . Phe . D-Met . Thr . OH HCl] (H-Y[dA]GF[dM]T-OH) | 0.07 | – |
| C[C@@H](NC(=O)[C@@H](N)Cc1ccc(O)cc1)C(=O)NCC(=O)N[C@@H](Cc1ccccc1)C(=O)O [(T), H . Tyr . D-Ala . Gly . Phe . OH HCl] | 0.07 | – |
| CC(C)C[C@@H](NC(=O)[C@H](Cc1ccccc1)NC(=O)CNC(=O)[C@@H](C)NC(=O)[C@@H](N)Cc1ccc(O)cc1)C(=O)Oc1ccc(Cl)cc1 [(U), H . Tyr . D-Ala . Gly . Phe . D-Leu . p-chlorophenyl ester HCl] | 0.05 | – |
| CN[C@@H](Cc1ccc(O)cc1)C(=O)N[C@H](C)C(=O)NCC(=O)N[C@@H](Cc1ccccc1)C(=O)N[C@H](CC(C)C)C(=O)O [(V), H . MeTyr . D-Ala . Gly . Phe . D-Leu . OH HCl] | 0.03 | – |
| COC(=O)[C@@H](CC(C)C)NC(=O)[C@H](Cc1ccccc1)NC(=O)CNC(=O)CNC(=O)[C@@H](N)Cc1ccc(O)cc1 [(W), H . Tyr . Gly . Gly . Phe . D-Leu . OMe HCl] | 0.06 | – |
| CN[C@@H](Cc1ccc(O)cc1)C(=O)N[C@H](C)C(=O)NCC(=O)N[C@@H](Cc1ccccc1)C(=O)N[C@H](CC(C)C)C(N)=O [(X), H . MeTyr . D-Ala . Gly . Phe . D-Leu . NH2 HCl] | 0.02 | – |
| COC(=O)[C@@H](CCSC)NC(=O)[C@H](Cc1ccccc1)NC(=O)CNC(=O)CNC(=O)[C@@H](N)Cc1ccc(O)cc1 [(Y), H . Tyr . Gly . Gly . Phe . D-Met . OMe HCl] | 0.06 | – |
| CSCC[C@@H](NC(=O)[C@H](Cc1ccccc1)NC(=O)CNC(=O)CNC(=O)[C@@H](N)Cc1ccc(O)cc1)C(=O)O [(Z), H . Tyr . Gly . Gly . Phe . D-Met . OH HCl] | 0.01 | – |
| CC(C)C[C@H](NC(=O)[C@H](Cc1ccccc1)NC(=O)CNC(=O)[C@@H](C)NC(=O)[C@@H](N)Cc1ccc(O)c([125I])c1)C(=O)O [material of the first peak, H.Tyr(3-^125 I).D-Ala.Gly.Phe.Leu.OH] | – | specific binding affinity (for the opiate receptor) (opiate receptor [2]): greater specific binding affinity |
| YGGFV [(M), H . Tyr . Gly . Gly . Phe . Val . OH HCl] | 0.08 | – |

From patent US4263255A, “Assay method and compounds” (Burroughs Wellcome Co., priority 1979, dated 1981)
